Test results as given in US20220017484A1, “INHIBITOR OF BRUTON TYROSINE KINASE” (BEIJING RECIPROCAPHARMACEUTICALS CO., LTD., priority 2018, published 2022).

Legend:
Btk [1] = target: T1, Btk (Homo sapiens, UniProt Q06187); assay: Analysis of in vitro inhibitory activity of Btk (cell-free TR-FRET kinase assay); type: biochemical; settings: for IC50: cell-free TR-FRET, ATP at Km, 1 h, read-out: Efficacy (Btk IC50); for inhibitory effects against Btk (in words): summary of Table 1 efficacy data
Procedure: In a cell-free kinase assay, the method described below or a similar method was used to determine the half inhibitory concentration (IC50) of the compound of the present invention on Btk.
Btk kinase activity was determined using a time-resolved fluorescence resonance energy transfer (TR-FRET) methodology. Measurements were performed in a reaction volume of 50 μL using 96-well assay plates. […] The reaction was quenched by the addition of 1.2 equivalents of EDTA (relative to divalent cation) in […] of 1× Lance buffer (Perkin-Elmer). Streptavidin-APC (Perkin-Elmer) and Eu-labeled p-Tyr100 antibody (Perkin-Elmer) in 1× Lance buffer were added in a volume of 25 μL to give final concentrations of 100 nM and 2.5 nM, respectively. The mixture was allowed to incubate for 1 h. The TR-FRET signal was measured on a multimode plate reader at an excitation wavelength (λEx) of 330 nm and detection wavelengths (λEm) of 615 and 665 nm. The activity was determined by the ratio of fluorescence at 665 nm to that at 615 nm. For each compound, the enzyme activity was measured in the presence of different concentrations of the compound. Negative control reactions were performed in the absence of inhibitor in replicates of six, and two no-enzyme controls were used to determine baseline fluorescence levels. IC50 was obtained by fitting using the program Batch Ki (Kuzmic, et al. (2000), Anal. Biochem. 286:45-50).
The Example compounds 1-50 of the present invention were synthesized according to the above Synthetic Schemes I to VII. In the analysis of in vitro inhibitory activity of Btk, the IC50 values of the Example compounds 1-50 of the present invention were determined. The IC50 values are given according to the interval of the IC50 value, where “+++” means IC50<100 nM; “++” means 100 nM≤IC50<1000 nM; and “+” means 1000 nM≤IC50<10000 nM.

OCI-LY7 cells = assay: Cell viability assay (CellTiter-Glo, 72 h); type: cell-based; settings: Homo sapiens, read-out: Results from inhibition of OCI-LY7 cells (IC50)
Procedure: An in vitro cell viability assay was conducted using the compounds of Examples 1-50 following the steps below:
1. After OCI-LY7 cells were recovered, they were cultured at 37° C., 5% CO2, and 95% humidity.
2. For the compounds of Examples 1-50, 8 compound solutions at different concentrations were prepared, respectively. 50 μL of the compound solution at each concentration was added to a 96-well black plate.
3. The cell concentration was adjusted to about 30,000 cells/mL. 100 μL of cell suspension was added to the 96-well plate, and mixed well. The final cell density was about 3,000 cells/well.
4. The 96-well plate was placed at 37° C., 5% CO2, and 95% humidity for 72 h.
5. The cell survival rate was measured by the method of CellTiter-Glo® Luminescent Cell Viability Assay (Promega, Cat #G7572). The fluorescence data were read on a microplate reader (EnVision™, a multi-function microplate detector, PerkinElmer).
6. The obtained fluorescence data were analyzed using GraphPad Prism software. The cell survival rate was calculated for each example compound at each concentration, and the IC50 interval of each example compound was obtained.

Btk [2] = target: T1, Btk; assay: Covalent inhibition assay on BTK (fluorescent probe labeling, SDS-PAGE scanning); type: binding; design: purchased carna 08-180; settings: for binding mode to recombinant BTK: 0.5 μM and 5 μM, 1 h incubation; for inhibition of the labeling of BTK by the fluorescent probe: 1 h incubation with BTK, then probe 1 h, 1% DMSO control
Procedure: FIG. 1 is a graph showing the scanning results from SDS-PAGE electrophoresis after the compounds of Examples 23 and 26 at two concentrations (0.5 μM and 5 μM) were incubated with BTK for 1 h, and then a probe prepared according to Sci. Rep. 2015, 5, 16136 was added and incubated for 1 h.
This assay was carried out using the compounds of Examples 23 and 26. The reagents used are as follows:
BTK kinase: brand name: carna, product number: 08-180, concentration: […];
BTK enzyme activity buffer: 1× kinase buffer+1 mM DTT+5 mM MgCl2+50 nM SEB;
BTK probe (100 μM): prepared according to Sci. Rep. 2015, 5, 16136 (Pan Zhengying, et al.);
The compounds of Examples 23 and 26: prepared as described above, and prepared at two concentrations (0.5 μM/5 μM) respectively.
The steps of the assay are as follows:
1. The sample order was 1% DMSO, 0.5 μM compound of Example 23, 5 μM compound of Example 23, 0.5 μM compound of Example 26, and 5 μM compound of Example 26. The compounds, BTK, probe and 2× loading buffer were added to 5 200 μl EP tubes using a pipette.
2. The final concentrations of the compounds of Examples 23 and 26 were 0.5 μM and 5 μM, and the control group was 1% DMSO. The compounds were first prepared with DMSO to 100× the above final concentrations, and diluted ×40 with BTK enzyme activity Buffer. For the reaction, 4 μl/well of the compound was added to the 10 μl system using a pipette to reach its final concentration. For 1% DMSO, the stock solution was diluted ×40 with BTK enzyme activity Buffer.
3. The BTK (200 ng/μl) was diluted to 10 ng/μl, and the probe (100 μM) was diluted to 2.5 μM. They were placed on ice for later use, and the probe was protected from light.
4. To each tube was added 4 μl of BTK, followed by 4 μl of the Example compound. After 1 h incubation, the probe was added, and then incubated for 1 h in the dark.
5. 2× loading buffer was prepared. After the probe was incubated, 10 μl of the 2× loading buffer was added to each well, mixed well, and heated at 100° C. for 10 min to prepare the sample.
6. 10 μl (containing 20 ng of BTK, and 0.5 μM probe) was loaded. Scanning was performed after SDS-PAGE. The order of samples was the order of spotting.
If it is a compound that reversibly binds to BTK, the probe would bind to the released BTK during 1 h incubation with a mixture of the compound and BTK, leading to a fluorescent band.

T1 sequence (Q06187 whole entry): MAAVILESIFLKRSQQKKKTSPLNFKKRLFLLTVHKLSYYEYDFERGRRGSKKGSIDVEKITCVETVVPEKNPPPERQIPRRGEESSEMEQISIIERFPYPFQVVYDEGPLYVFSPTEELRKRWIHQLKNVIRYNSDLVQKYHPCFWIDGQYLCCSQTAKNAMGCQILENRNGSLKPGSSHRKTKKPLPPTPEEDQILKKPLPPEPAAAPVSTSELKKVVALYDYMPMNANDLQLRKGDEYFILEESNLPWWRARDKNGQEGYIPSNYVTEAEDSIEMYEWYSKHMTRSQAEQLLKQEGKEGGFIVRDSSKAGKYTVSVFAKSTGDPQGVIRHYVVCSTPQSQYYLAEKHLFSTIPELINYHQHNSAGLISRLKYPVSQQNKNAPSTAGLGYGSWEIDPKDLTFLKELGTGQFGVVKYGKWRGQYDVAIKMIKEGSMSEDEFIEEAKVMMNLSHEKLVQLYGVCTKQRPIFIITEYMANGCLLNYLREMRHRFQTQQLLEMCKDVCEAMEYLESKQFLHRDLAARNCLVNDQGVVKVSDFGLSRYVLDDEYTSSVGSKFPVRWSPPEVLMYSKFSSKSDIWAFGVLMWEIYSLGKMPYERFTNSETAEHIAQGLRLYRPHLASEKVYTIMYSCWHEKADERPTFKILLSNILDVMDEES

| SMILES | IC50 (Btk [1]) | inhibitory effects against Btk (in words) (Btk [1]) | IC50 (OCI-LY7 cells) | binding mode to recombinant BTK (Btk [2]) | inhibition of the labeling of BTK by the fluorescent probe (Btk [2]; compound 0.5 μM) | inhibition of the labeling of BTK by the fluorescent probe (Btk [2]; compound 5 μM) |
| --- | --- | --- | --- | --- | --- | --- |
| C=CC(=O)N(C)c1cccc(Nc2ncc3cc(-c4c(C)cc[nH]c4=O)ccc3n2)c1 [Example 23] | < 100 nM | particularly excellent inhibitory effects | < 500 nM | irreversibly covalently binds | completely inhibit | completely inhibit |
| C=CC(=O)N(CC)c1cccc(Nc2ncc3cc(-c4c(C)cc[nH]c4=O)ccc3n2)c1 [Example 26] | < 100 nM | particularly excellent inhibitory effects | < 500 nM | irreversibly covalently binds | completely inhibit | completely inhibit |
| [2H]C([2H])=C([2H])C(=O)N(C)c1cccc(Nc2ncc3cc(-c4c(C)cc[nH]c4=O)ccc3n2)c1 [Example 45] | < 100 nM | particularly excellent inhibitory effects | < 500 nM |  |  |  |
| [2H]C([2H])=C([2H])C(=O)N(c1cccc(Nc2ncc3cc(-c4c(C)cc[nH]c4=O)ccc3n2)c1)C([2H])([2H])[2H] [Example 46] | < 100 nM | particularly excellent inhibitory effects | < 500 nM |  |  |  |
| [2H]C([2H])([2H])C([2H])([2H])N(C(=O)C=C)c1cccc(Nc2ncc3cc(-c4c(C)cc[nH]c4=O)ccc3n2)c1 [Example 47] | < 100 nM |  | < 500 nM |  |  |  |
| [2H]C([2H])=C([2H])C(=O)N(CC)c1cccc(Nc2ncc3cc(-c4c(C)cc[nH]c4=O)ccc3n2)c1 [Example 48] | < 100 nM |  | < 500 nM |  |  |  |
| [2H]C([2H])=C([2H])C(=O)N(c1cccc(Nc2ncc3cc(-c4c(C)cc[nH]c4=O)ccc3n2)c1)C([2H])([2H])C([2H])([2H])[2H] [Example 49] | < 100 nM |  | < 500 nM |  |  |  |
| [2H]C([2H])=C([2H])C(=O)N(CCOC)c1cccc(Nc2ncc3cc(-c4c(C)cc[nH]c4=O)ccc3n2)c1 [Example 50] | < 100 nM | particularly excellent inhibitory effects | < 500 nM |  |  |  |
